Measurements published in article PMC12217461 (Antimicrobial Agents and Chemotherapy, 2025).

Key:
Experiment in all cases: microbe, parasite or virus in culture
Format in all cases: cell-based
[1] = test system: Escherichia coli AZ 1677; conditions: AZ1677, IMP-59, TEM-1, TAN/XER fixed at 4 µg/mL, XER 8 µg/mL in MEM-XER, read-out: Minimal inhibitory concentration
Experimental: (§1) Most isolates and their respective β-lactamase content were characterized by whole-genome sequencing.
(§2) To assess the inhibitory potency of XER, susceptibility testing was performed by broth microdilution method, determining the minimal inhibitory concentrations (MICs) of different antibiotics or antibiotic plus β-lactamase inhibitor combinations, including cefepime (FEP), imipenem (IPM), meropenem (MEM), and their combinations with XER (FEP-XER, IPM-XER, and MEM-XER). All data obtained with XER-based combinations were compared with data with TAN-based combinations, FEP-TAN, IPM-TAN, and MEM-TAN ([16]). FEP was purchased from Sigma-Aldrich (Saint-Louis, USA), whereas MEM was from HuiChem (Shanghai, China). […] MICs were determined in triplicate in cation-adjusted Mueller-Hinton (MH) broth (Bio-Rad, Marnes-la-Coquette, France) according to the CLSI guidelines ([53]). The results were interpreted according to the decrease in MIC value for the same antibiotic or combination of the corresponding recombinant strain producing the MBL enzyme. […] In a recent phase I clinical evaluation, XER was combined with cefiderocol. However, as this latter β-lactam substrate is known to be poorly hydrolyzed by IMP enzymes, it was not considered for the evaluation of XER inhibitory activity in this study. Instead, carbapenems were used as a substrate to evaluate the β-lactamase IMP activity in the presence or absence of XER and TAN, as it was deemed more specific for the IMP carbapenemase activity.

[2] = test system: Serratia marcescens SM1; conditions: IMP-11, TAN/XER fixed at 4 µg/mL, XER 8 µg/mL in MEM-XER, read-out: Minimal inhibitory concentration
Experimental: as §1, §2

[3] = test system: Enterobacter hormaechei subsp. steigerwaltii SMART 1234; conditions: read-out: Minimal inhibitory concentration
Experimental: as §1, §2

[4] = test system: Pseudomonas aeruginosa CC02-010; conditions: CC02010, IMP-7, TAN/XER fixed at 4 µg/mL, XER 8 µg/mL in MEM-XER, read-out: Minimal inhibitory concentration
Experimental: as §1, §2

[5] = test system: Pseudomonas aeruginosa PA12; conditions: IMP-13, TAN/XER fixed at 4 µg/mL, XER 8 µg/mL in MEM-XER, read-out: Minimal inhibitory concentration
Experimental: as §1, §2

[6] = test system: Enterobacter hormaechei subsp. steigerwaltii SMART 398; conditions: read-out: Minimal inhibitory concentration
Experimental: as §1, §2

[7] = test system: Klebsiella pneumoniae SMART 1137; conditions: SMART1137, read-out: Minimal inhibitory concentration
Experimental: as §1, §2

[8] = test system: Klebsiella pneumoniae SMART 875; conditions: SMART875, IMP-26, CTX-M-15, TEM-1 like, TAN/XER fixed at 4 µg/mL, XER 8 µg/mL in MEM-XER, read-out: Minimal inhibitory concentration
Experimental: as §1, §2

[9] = test system: Enterobacter hormaechei subsp. oharae SMART 1260; conditions: read-out: Minimal inhibitory concentration
Experimental: as §1, §2

[10] = test system: Enterobacter hormaechei subsp. steigerwaltii SMART 1276; conditions: read-out: Minimal inhibitory concentration
Experimental: as §1, §2

[11] = test system: Pseudomonas aeruginosa PA10; conditions: IMP-2, TAN/XER fixed at 4 µg/mL, XER 8 µg/mL in MEM-XER, read-out: Minimal inhibitory concentration
Experimental: as §1, §2

[12] = test system: Pseudomonas aeruginosa PA13; conditions: IMP-15, TAN/XER fixed at 4 µg/mL, XER 8 µg/mL in MEM-XER, read-out: Minimal inhibitory concentration
Experimental: as §1, §2

[13] = test system: Escherichia coli E. coli 7 IMP; conditions: E.COLI7IMP, read-out: Minimal inhibitory concentration
Experimental: as §1, §2

[14] = test system: Klebsiella pneumoniae Kp 5 IMP; conditions: KP5IMP, read-out: Minimal inhibitory concentration
Experimental: as §1, §2

[15] = test system: Pseudomonas aeruginosa PA14; conditions: IMP-18, TAN/XER fixed at 4 µg/mL, XER 8 µg/mL in MEM-XER, read-out: Minimal inhibitory concentration
Experimental: as §1, §2

[16] = test system: Citrobacter freundii SMART 958; conditions: SMART958, IMP-1, OXA-142, TAN/XER fixed at 4 µg/mL, XER 8 µg/mL in MEM-XER, read-out: Minimal inhibitory concentration
Experimental: as §1, §2

[17] = test system: Escherichia coli SMART 1735; conditions: SMART1735, IMP-59, TEM-1, TAN/XER fixed at 4 µg/mL, XER 8 µg/mL in MEM-XER, read-out: Minimal inhibitory concentration
Experimental: as §1, §2

[18] = test system: Klebsiella pneumoniae SMART 882; conditions: for MIC: Klebsiella pneumoniae, SMART882, read-out: Minimal inhibitory concentration
Experimental: as §1, §2

[19] = test system: Enterobacter xiangfangensis SMART 409; conditions: Enterobacter hormaechei, SMART409, read-out: Minimal inhibitory concentration
Experimental: as §1, §2

[20] = test system: Serratia marcescens SMART 2558; conditions: SMART2558, IMP-8, CTX-M-3, TAN/XER fixed at 4 µg/mL, XER 8 µg/mL in MEM-XER, read-out: Minimal inhibitory concentration
Experimental: as §1, §2

[21] = test system: Klebsiella pneumoniae SMART 878; conditions: for MIC: Klebsiella pneumoniae, SMART878, read-out: Minimal inhibitory concentration
Experimental: as §1, §2

[22] = test system: Pseudomonas aeruginosa PA15; conditions: IMP-19, TAN/XER fixed at 4 µg/mL, XER 8 µg/mL in MEM-XER, read-out: Minimal inhibitory concentration
Experimental: as §1, §2

Structure (SMILES): C[C@@H](O)[C@H]1C(=O)N2C(C(=O)O)=C(S[C@@H]3CN[C@H](C(=O)N(C)C)C3)[C@H](C)[C@H]12 [MEM, meropenem]
- MIC [1]: 0.5 µg/mL
- MIC [2]: 2 µg/mL
- MIC [3]: 0.5 µg/mL
- MIC [4]: 256 µg/mL
- MIC [5]: 16 µg/mL
- MIC [6]: 0.5 µg/mL
- MIC [7]: 128 µg/mL
- MIC [8]: 0.125 µg/mL
- MIC [9]: 1 µg/mL
- MIC [10]: 2 µg/mL
- MIC [11]: 32 µg/mL
- MIC [12]: 64 µg/mL
- MIC [13]: 1 µg/mL
- MIC [14]: 0.5 µg/mL
- MIC [15]: 32 µg/mL
- MIC [16]: 4 µg/mL
- MIC [17]: 0.5 µg/mL
- Minimal inhibitory concentration ([18]; IMP-26, CTX-M-15, OXA-1, TAN/XER fixed at 4 µg/mL, XER 8 µg/mL in MEM-XER): 1 µg/mL
- MIC [18]: 4 µg/mL
- MIC [19]: ≤ 0.125 µg/mL
- MIC [20]: 0.25 µg/mL
- Minimal inhibitory concentration ([21]; IMP-26, CTX-M-15, OXA-1, TEM-1 like, TAN/XER fixed at 4 µg/mL, XER 8 µg/mL in MEM-XER): 1 µg/mL
- MIC [21]: 4 µg/mL
- MIC [22]: 64 µg/mL

Structure (SMILES): C[C@@H](O)[C@H]1C(=O)N2C(C(=O)O)=C(SCCN=CN)C[C@H]12 [IPM, imipenem]
- MIC [1]: ≤ 0.25 µg/mL
- MIC [2]: ≤ 0.25 µg/mL
- MIC [3]: ≤ 0.25 µg/mL
- MIC [4]: 128 µg/mL
- MIC [5]: 8 µg/mL
- MIC [6]: 0.5 µg/mL
- MIC [7]: 2 µg/mL
- MIC [8]: ≤ 0.25 µg/mL
- MIC [9]: ≤ 0.25 µg/mL
- MIC [10]: 0.5 µg/mL
- MIC [11]: 32 µg/mL
- MIC [12]: 256 µg/mL
- MIC [13]: 0.5 µg/mL
- MIC [14]: ≤ 0.25 µg/mL
- MIC [15]: 128 µg/mL
- MIC [16]: 0.5 µg/mL
- MIC [17]: ≤ 0.25 µg/mL
- MIC [18]: ≤ 0.25 µg/mL
- MIC [19]: ≤ 0.25 µg/mL
- MIC [20]: ≤ 0.25 µg/mL
- MIC [21]: ≤ 0.25 µg/mL
- MIC [22]: 256 µg/mL

Structure (SMILES): CO/N=C(\C(=O)N[C@@H]1C(=O)N2C(C(=O)[O-])=C(C[N+]3(C)CCCC3)CS[C@H]12)c1csc(N)n1 [FEP, cefepime]
- MIC [1]: 8 µg/mL
- MIC [2]: 4 µg/mL
- MIC [3]: 8 µg/mL
- MIC [4]: > 256 µg/mL
- MIC [5]: 128 µg/mL
- MIC [6]: 128 µg/mL
- MIC [7]: > 256 µg/mL
- MIC [8]: 64 µg/mL
- MIC [9]: 32 µg/mL
- MIC [10]: > 256 µg/mL
- MIC [11]: > 256 µg/mL
- MIC [12]: 128 µg/mL
- MIC [13]: > 256 µg/mL
- MIC [14]: 256 µg/mL
- MIC [15]: 256 µg/mL
- MIC [16]: 32 µg/mL
- MIC [17]: 8 µg/mL
- MIC [18]: 256 µg/mL
- MIC [19]: 4 µg/mL
- MIC [20]: 32 µg/mL
- MIC [21]: 256 µg/mL
- MIC [22]: > 256 µg/mL
